Data on 16 substances can be found in article PMC4669382 (mBio, 2015).

Data set [1] concerns C. albicans Bar1. Put plainly: 127 nM C. albicans Bar1 in 50 µM potassium phosphate solution. Particulars: 37°C, up to 24 h.
Data set [2] relates to Bar1(D232A). Description: 127 nM Bar1. Particulars: C. albicans, 37°C, up to 1 h.
Data set [3] has as its system Bar1(D232A). Put plainly: 60 nM Bar1. Particulars: C. albicans, 37°C, up to 90 min.
For data set [4], the system named is C. albicans Bar1. Description: Bar1 activity on bovine serum albumin. Format: biochemical, Candida albicans. Particulars: tested at high protein concentrations, data not shown.
Data set [5] has as its system S. cerevisiae Bar1. Conditions: cited from earlier work.

In the case of AARLTNFGYFEPG, the cleaved bond result in data set [1] is on record as “T5-N6, 1 h”.
For the substance GAALTNFGYFEPG, the cleaved bond entry in data set [1] is given as “T5-N6, 1 h”.
Regarding GFAATNFGYFEPG, the cleaved bond entry in data set [1] is given as “T5-N6, 1 h”.
Same read-out and setting: under GFRAANFGYFEPG stands “A5-N6, 1 h”; under GFRLAAFGYFEPG, “A5-A6, 1 h”.
The same measure, in the same setting: under GFRLTAAGYFEPG stands “T5-A6, 1 h”; under GFRLTNAAYFEPG, “T5-N6, 1 h”; under GFRLTNFAAFEPG, “T5-N6, 1 h”.
On to GFRLTNFGAAEPG, for which the not cleaved result in data set [1] is listed as “no products were detected”.
As to GFRLTNFGYAAPG, the not cleaved result in data set [1] is given as “no products were detected”.
As to GFRLTNFGYEAAG, in data set [1], the not cleaved entry is listed as “no products were detected”.
Same read-out and setting: under GFRLTNFGYFEAA stands “no products were detected”.
GFRLTNFGYFEPG: the cleaved bond entry in data set [1] is listed as “threonine5-asparagine6, major, 1 h”. Besides, the results for the not cleaved result in data set [2] and in data set [3] were “no cleavage products were generated” and “no detectable cleavage activity”, respectively.
KFKLTNFGYFEPG: the cleaved bond entry in data set [1] is listed as “Thr5-Asn6, 1 h”.
On to “bovine serum albumin: bovine serum albumin tested as a Bar1 substrate”, for which the “Bar1 activity on protein substrate” value in data set [4] is given as “no detectable activity”.
As for pepstatin A, the “sensitivity of S. cerevisiae Bar1 to inhibitor” value in data set [5] is “insensitive”.
